The source of these data is the NIST ThermoML archive (doi:10.1016/j.jct.2012.12.019).

Structures are written as SMILES. Numbers after ± are expanded uncertainties.

The conditions of this data set: Liquid, Closed cell (Static) method.

As for `CCCO` [propan-1-ol], the “vapor or sublimation pressure” value is reported as 160.4 ± 3.5 kPa (383.2 K); 223.3 ± 4.7 kPa (393.2 K); 303.1 ± 6.3 kPa (403.2 K); 406.6 ± 8.5 kPa (413.2 K); 546.1 ± 11 kPa (423.2 K).
